Test results published in patent US9018142B2, “Oil-field biocide method utilizing a peracid” (PeroxyChem LLC, priority 2008, dated 2015).

Test system: Desulfotomaculum nigrificans (ATCC 19858)
Experiment: D. nigrificans growth after biocide exposure in 0.1 wt % polyacrylamide
Format: cell-based
Set-up: key to D. nigrificans Growth Results / D. nigrificans Growth Results, Neutral Control: positive (+); negative (NEG)
Protocol: Example 2 illustrates the biocidal efficacy of peracetic acid, compared with glutaraldehyde, against another strain of sulfur-reducing bacteria, Desulfotomaculum nigrificans, present in an aqueous solution also containing 0.1 wt % polyacrylamide polymer. A range of peracetic acid and glutaraldehyde concentrations were evaluated for biocidal efficacy: 1, 5, 10, 25, 50, 75, 100, 200 and 300 ppm peracetic acid and the same concentrations for glutaraldehyde (except that 300 ppm was omitted).
The dilute aqueous polyacrylamide was prepared using an aqueous 50 wt % polyacrylamide solution (Sigma-Aldrich, St. Louis, Mo.) and diluting the polyacrylamide with deionized water to obtain 0.1 wt % polyacrylamide in water. The peracetic acid was Vigor Ox® SP-15 antimicrobial agent, containing about 15-17 wt % peracetic acid, 9-11 wt % hydrogen peroxide and 33-38 wt % acetic acid in water (FMC Corporation, Philadelphia, Pa.), and this peracetic acid solution was diluted to the desired concentration within the range 1 to 300 ppm peracetic acid for the various evaluations. The glutaraldehyde used in this Example 2 was a 50 wt % glutaraldehyde solution in water (Alfa Aesar, Ward Hill, Mass.), diluted with deionized water to the desired concentration within the range 1 to 200 ppm for the evaluations.
The bacterial strain used in this Example 2 was the sulfur-reducing bacterium Desulfotomaculum nigrificans (ATCC 19858 from American Type Culture Collection, Manassas, Va.). A working inoculum for each of the three studies described below was prepared by the following procedure. Baar's medium for sulfate reducers was inoculated with D. nigrificans from a cryogenic tube, grown at 50° C. anaerobically for a period sufficient to observe good growth of the culture (evident by blackening of the tube), between 2-7 days. This D. nigrificans culture was used as the working inoculum for each of the studies described below.
The methodology used in this Example 2 was as follows. A sterilized screw-cap tube containing 9.5-10 ml 0.1 wt % polyacrylamide was dosed with an appropriate amount of peracetic acid (or glutaraldehyde) to provide the desired peracetic acid (or glutaraldehyde) concentration (e.g., 1 to 300 ppm peracetic acid) in 10 ml 0.1 wt % polyacrylamide required for the study. The tubes were then vortex mixed and 0.1 ml D. nigrificans inoculum was added and again vortex mixed. The initial inoculation level was estimated as about 2.6×10^6 CFU/tube. Timing of the exposure period (e.g., 1 minute to 1 day) was begun when the D. nigrificans inoculum was added.
After the exposure period had elapsed, 1 ml of the treated mixture was added to a second tube containing 9 ml of Dey-Engley (D/E) neutralizing broth and vortex mixed. After about 5-8 minutes had elapsed, 1 ml of the neutralized solution was added to yet another tube containing 9 ml of Baar's modified medium for sulfate reducers. This tube was vortex mixed and then incubated anaerobically at 50° C., with the screw cap loosened, using an AnaeroPack (Mitsubishi Gas Chemical America, Inc., New York, N.Y.) in an anaerobic jar.
Growth controls were also carried out in the studies of this Example 2, using the following procedure. A screw-cap tube containing 10 ml of 0.1 wt % polyacrylamide was inoculated with 0.1 ml of D. nigrificans culture and then diluted in D/E neutralizing broth after the exposure period, vortex mixed, and then diluted in Baar's medium as described above. The control tubes were incubated at 50° C., also as described above, and monitored for growth after two days.
Neutralizing controls were also carried out for the peracetic acid and glutaraldehyde treatment agents to confirm that D/E neutralizing broth (which contains sodium bisulfite and […] among its neutralizing agents) was capable of neutralizing either peracetic acid or glutaraldehyde at the highest concentration used in each study. […]

Compound: O=CCCCC=O [Glutaraldehyde, glutaraldehyde, reference compound]
- D. nigrificans Growth Results (first study, 1 ppm, 1 minute exposure): +
- D. nigrificans Growth Results (first study, 1 ppm, 1 hour exposure): +
- D. nigrificans Growth Results (first study, 1 ppm, 1 day exposure): +
- D. nigrificans Growth Results (first study, 5 ppm, 1 minute exposure): +
- D. nigrificans Growth Results (first study, 5 ppm, 1 hour exposure): +
- D. nigrificans Growth Results (first study, 5 ppm, 1 day exposure): +
- D. nigrificans Growth Results (first study, 10 ppm, 1 minute exposure): +
- D. nigrificans Growth Results (first study, 10 ppm, 1 hour exposure): +
- D. nigrificans Growth Results (first study, 10 ppm, 1 day exposure): +
- D. nigrificans Growth Results (first study, 25 ppm, 1 minute exposure): +
- D. nigrificans Growth Results (first study, 25 ppm, 1 hour exposure): +
- D. nigrificans Growth Results (first study, 25 ppm, 1 day exposure): +
- D. nigrificans Growth Results, Neutral Control (first study, 50 ppm biocide neutralized in D/E neutralizing broth before inoculation): +
- D. nigrificans Growth Results (first study, 50 ppm, 1 minute exposure): +
- D. nigrificans Growth Results (first study, 50 ppm, 1 hour exposure): +
- D. nigrificans Growth Results (first study, 50 ppm, 1 day exposure): +
- biocidal control of D. nigrificans (first study, any of the concentrations (1 to 50 ppm) or exposure times (1 minute, 1 hour, 1 day)): no biocidal control
- D. nigrificans Growth Results (second study, 50 ppm, 10 minutes exposure): +
- D. nigrificans Growth Results (second study, 50 ppm, 1 hour exposure): +
- D. nigrificans Growth Results (second study, 50 ppm, 1 day exposure): +
- D. nigrificans Growth Results (second study, 75 ppm, 10 minutes exposure): +
- D. nigrificans Growth Results (second study, 75 ppm, 1 hour exposure): +
- D. nigrificans Growth Results (second study, 75 ppm, 1 day exposure): +
- D. nigrificans Growth Results (second study, 100 ppm, 10 minutes exposure): +
- D. nigrificans Growth Results (second study, 100 ppm, 1 hour exposure): +
- D. nigrificans Growth Results (second study, 100 ppm, 1 day exposure): +
- D. nigrificans Growth Results, Neutral Control (second study, 200 ppm biocide neutralized in D/E neutralizing broth before inoculation): +
- D. nigrificans Growth Results (second study, 200 ppm, 10 minutes exposure): +
- D. nigrificans Growth Results (second study, 200 ppm, 1 hour exposure): +
- D. nigrificans Growth Results (second study, 200 ppm, 1 day exposure): +
- biocidal control of D. nigrificans (second study, any of the concentrations (50 to 200 ppm) or exposure times (10 minutes, 1 hour, 1 day)): no biocidal control
